Source: ChEMBL document CHEMBL1821608, “Fragment library screening reveals remarkable similarities between the G protein-coupled receptor histamine H₄ and the ion channel serotonin 5-HT₃A” (Bioorg Med Chem Lett, 2011)
Activity calls are given as the source filed them. The rule behind the calls is not given here.

Tests used:
Histamine H4 receptor [1] = biological target: T1, Histamine H4 receptor (Homo sapiens, UniProt Q9H3N8); assay: Displacement of [3H]histamine from human H4R receptor expressed in HEK293 cells at 10 uM after 1.5 hrs by liquid scintillation counting; assay type: cell-based
[2] = biological target: T2, 5-hydroxytryptamine receptor 3A (Homo sapiens) (UniProt P46098); assay: Displacement of [3H]granisetron from human 5-HT3AR expressed in HEK293 cells after 24 hrs by liquid scintillation counting; assay type: cell-based
T2 sequence (whole entry): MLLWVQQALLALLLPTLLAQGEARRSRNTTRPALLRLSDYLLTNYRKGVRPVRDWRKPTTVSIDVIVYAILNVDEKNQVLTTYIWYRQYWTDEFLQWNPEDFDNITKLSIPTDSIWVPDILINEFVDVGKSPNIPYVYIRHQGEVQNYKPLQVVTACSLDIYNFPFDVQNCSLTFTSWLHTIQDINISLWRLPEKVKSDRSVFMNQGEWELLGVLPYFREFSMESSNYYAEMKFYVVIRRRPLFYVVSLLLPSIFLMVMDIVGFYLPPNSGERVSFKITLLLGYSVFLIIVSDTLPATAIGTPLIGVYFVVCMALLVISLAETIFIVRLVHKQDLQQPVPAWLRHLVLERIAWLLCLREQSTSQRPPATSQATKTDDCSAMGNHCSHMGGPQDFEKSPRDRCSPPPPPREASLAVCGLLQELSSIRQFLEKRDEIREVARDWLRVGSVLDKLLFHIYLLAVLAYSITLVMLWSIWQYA

Histamine H4 receptor [3] = biological target: T1, Histamine H4 receptor; assay: Binding affinity to H4R receptor
[4] = biological target: T2, 5-hydroxytryptamine receptor 3A (Homo sapiens); assay: Inhibition of 5-HT3AR at 10 uM

T1 sequence (Q9H3N8 whole entry): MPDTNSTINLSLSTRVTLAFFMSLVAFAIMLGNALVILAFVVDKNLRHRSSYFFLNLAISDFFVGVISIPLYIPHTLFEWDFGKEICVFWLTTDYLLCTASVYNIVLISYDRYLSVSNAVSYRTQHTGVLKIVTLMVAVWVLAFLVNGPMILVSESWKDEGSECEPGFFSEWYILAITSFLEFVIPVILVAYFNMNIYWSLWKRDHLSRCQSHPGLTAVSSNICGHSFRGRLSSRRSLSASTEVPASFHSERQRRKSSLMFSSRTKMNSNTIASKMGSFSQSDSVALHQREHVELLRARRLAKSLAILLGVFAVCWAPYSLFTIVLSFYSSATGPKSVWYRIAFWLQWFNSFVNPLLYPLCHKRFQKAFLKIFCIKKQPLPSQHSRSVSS

Row | SMILES | pKi (Histamine H4 receptor [1]) | pKi [2] | other results
1 | Nc1ccc2cc3ccccc3nc2c1 | inactive | – | –
2 | c1cncc(Cc2c[nH]cn2)c1 | – | inactive | –
3 | c1ccc(CNCCc2c[nH]cn2)cc1 | – | inactive | –
4 | Nc1nc2c(c(N3CCNCC3)n1)CCC1=C2[C@@H]2CCCC[C@@H]2O1 | – | – | Ki (Histamine H4 receptor [3]): 79.4 nM
5 | CN1CCN(c2cc(-c3ccccc3)ncn2)CC1 | – | inactive | –
6 | N=C(N)NCCCc1ccccc1 | inactive | – | –
7 | Clc1ccc(C2CCNC2)cc1 (stereo not drawn) | inactive | – | –
8 | Nc1nc2c(c(N3CCNCC3)n1)CCCc1ccccc1-2 | – | – | inhibition [4]: 98%
